{
  "source": "ChEMBL document CHEMBL1157921",
  "about": "“Selective targeting of 2'-deoxy-5-fluorouridine to urokinase positive malignant cells in vitro” (Bioorg Med Chem Lett, 2010)",
  "type_in_all_cases": "functional, cell-based",
  "key": {"MCF7 [1]": {"system": "MCF7", "assay": "Cytotoxicity against human MCF7 cells overexpressing urokinase plasminogen activator at > 144 uM"}, "MDA-MB-231": {"system": "MDA-MB-231", "assay": "Cytotoxicity against human MDA-MB-231 cells overexpressing urokinase plasminogen activator"}, "MCF7 [2]": {"system": "MCF7", "assay": "Cytotoxicity against human MCF7 cells overexpressing urokinase plasminogen activator at > 20.3 uM"}},
  "note": "The source made the active and inactive calls. No cut-off for these calls is given here.",
  "data": [
    {"smiles": "O=C(O)CCC(=O)O[C@H]1C[C@H](n2cc(F)c(=O)[nH]c2=O)O[C@@H]1CO", "values": [
      {"measurement": "inhibition", "setting": "MCF7 [1]", "value": "inactive"}
    ]},
    {"smiles": "O=c1[nH]c(=O)n([C@H]2C[C@H](O)[C@@H](CO)O2)cc1F", "note": "[FLOXURIDINE]", "values": [
      {"measurement": "IC50", "setting": "MDA-MB-231", "value": 210, "unit": "nM"},
      {"measurement": "inhibition", "setting": "MCF7 [2]", "value": "inactive"}
    ]}
  ]
}
